Columns and labels:
[1] = molecular target: T1, 4-hydroxy-tetrahydrodipicolinate synthase (Escherichia coli K-12) (UniProt P0A6L2); assay: Inhibitory concentration against Escherichia coli dihydrodipicolinate synthase after 30 minutes
T1 sequence (whole entry): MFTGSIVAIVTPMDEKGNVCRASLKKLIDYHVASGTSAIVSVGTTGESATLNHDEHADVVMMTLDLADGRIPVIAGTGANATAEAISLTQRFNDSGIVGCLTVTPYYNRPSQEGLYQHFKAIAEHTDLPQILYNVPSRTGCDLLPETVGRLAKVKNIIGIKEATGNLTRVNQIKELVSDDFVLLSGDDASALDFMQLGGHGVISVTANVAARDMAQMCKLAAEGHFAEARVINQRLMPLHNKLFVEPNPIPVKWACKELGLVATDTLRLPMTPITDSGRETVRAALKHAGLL

[2] = molecular target: T1, 4-hydroxy-tetrahydrodipicolinate synthase (Escherichia coli K-12); assay: Inhibitory concentration against Escherichia coli dihydrodipicolinate synthase after 15 minutes

Concentration [1]: 50 nM | Concentration [2]: 50 nM
Compound: CCOC(=O)/C=C/C(=O)CCC(=O)OCC
